One data set deals with ThNAD-MEα. Kind of data set: NADH formation at […] nm. Type of data set: biochemical, Tarenaya hassleriana. The following applies: read-out: Km malate; 4 mM NAD, 10 mM MnCl2, MES pH 6.2-6.4.
A further data set relates to ThNAD-MEα/β2. As to the kind of experiment: NADH formation at […] nm. Particulars: read-out: Km malate; 4 mM NAD, 10 mM MnCl2, MES pH 6.2-6.4. The class given is biochemical, Tarenaya hassleriana.
The subject of the next data set is GgNAD-MEβ2. As to the kind of experiment: NADH formation at […] nm. The class given is biochemical, Gynandropsis gynandra. Particulars: read-out: Km malate; no aspartate; 4 mM NAD, 10 mM MnCl2, MES pH 6.2-6.4.
A further data set concerns ThNAD-MEβ2. As to the kind of experiment: NADH formation at […] nm. The class given is biochemical, Tarenaya hassleriana. The following applies: read-out: Km malate; 4 mM NAD, 10 mM MnCl2, MES pH 6.2-6.4.
Another data set has as its system GgNAD-MEα. As to the kind of experiment: NADH formation at […] nm. The class given is biochemical, Gynandropsis gynandra. The following applies: read-out: Km malate; 4 mM NAD, 10 mM MnCl2, MES pH 6.2-6.4.
The test system of another data set is ThNAD-MEβ1. Kind of data set: NADH formation at […] nm. Particulars: read-out: Km malate; 4 mM NAD, 10 mM MnCl2, MES pH 6.2-6.4. The class given is biochemical, Tarenaya hassleriana.
The next data set relates to GgNAD-MEα/β2. As to the kind of experiment: NADH formation at […] nm. The following applies: read-out: Km malate; no aspartate; 4 mM NAD, 10 mM MnCl2, MES pH 6.2-6.4. Type of data set: biochemical, Gynandropsis gynandra.
The next data set deals with ThNAD-MEα/β1. Kind of data set: NADH formation at […] nm. Particulars: read-out: Km malate; 4 mM NAD, 10 mM MnCl2, MES pH 6.2-6.4. Type of data set: biochemical, Tarenaya hassleriana.
Substrate in the data set “purified protein”: O=C(O)C[C@H](O)C(=O)O
Kind of data set: purified protein. Particulars: no aspartate; 4 mM NAD, 10 mM MnCl2, MES pH 6.2-6.4; pH 6.0.

From doi:10.1101/2021.06.16.448762v1 (biorxiv, 2021) come the findings set out here.

A word on the Km: it is the concentration of substrate that gives half-maximal velocity. As usually defined, the kcat is the number of substrate molecules converted per active site and unit of time at saturation.

As to `O=C(O)C[C@H](O)C(=O)O` [malate], the Km with ThNAD-MEα turned out to be 5.4 ± 1.3 mM; with ThNAD-MEα/β2 it was 3.4 ± 1 mM; in the data set with GgNAD-MEβ2, 2.6 ± 1 mM; in the data set on ThNAD-MEβ2, 6.8 ± 1.7 mM; with GgNAD-MEα it was 3.1 ± 0.4 mM; in the data set on ThNAD-MEβ1, 9.2 ± 2.3 mM. The Michaelis constant (Km) with GgNAD-MEα/β2 stood at 3.5 ± 0.5 mM; with ThNAD-MEα/β1, 6.6 ± 1.6 mM.

B1: AtNAD-MEα/β (Arabidopsis thaliana) (protein)
chain 1: PTIVHKQGLDILHDPWFNKGTAFTMTERNRLDLRGLLPPNVMDSEQQIFRFMTDLKRLEEQARDGPSDPNALAKWRILNRLHDRNETMYYKVLINNIEEYAPIVYTPTVGLVCQNYSGLFRRPRGMYFSAEDRGEMMSMVYNWPAEQVDMIVVTDGSRILGLGDLGVHGIGIAVGKLDLYVAAAGINPQRVLPVMIDVGTNNEKLRNDPMYLGLQQRRLEDDDYIDVIDEFMEAVYTRWPHVIVQFEDFQSKWAFKLLQRYRCTYRMFNDDVQGTAGVAIAGLLGAVRAQGRPMIDFPKMKIVVAGAGSAGIGVLNAARKTMARMLGNTETAFDSAQSQFWVVDAQGLITEGRENIDPEAQPFARKTKEMERQGLKEGATLVEVVREVKPDVLLGLSAVGGLFSKEVLEAMKGSTSTRPAIFAMSNPTKNAECTPQDAFSILGENMIFASGSPFKNVEFGNGHVGHCNQGNNMYLFPGIGLGTLLSGAPIVSDGMLQAASECLAAYMSEEEVLEGIIYPPISRIRDITKRIAAAVIKEAIEEDLVEGYREMDAREIQKLDEEGLMEYVENNMWNPEYPTLVYKDD
chain 2: CIVHKRGADILHDPWFNKDTGFPLTERDRLGIRGLLPPRVMTCVQQCDRFIESFRSLENNTKGEPENVVALAKWRMLNRLHDRNETLYYRVLIDNIKDFAPIIYTPTVGLVCQNYSGLYRRPRGMYFSAKDKGEMMSMIYNWPAPQVDMIVITDGSRILGLGDLGVQGIGIPIGKLDMYVAAAGINPQRVLPIMLDVGTNNEKLLQNDLYLGVRQPRLEGEEYLEIIDEFMEAAFTRWPKAVVQFEDFQAKWAFGTLERYRKKFCMFNDDVQGTAGVALAGLLGTVRAQGRPISDFVNQKIVVVGAGSAGLGVTKMAVQAVARMAGISESEATKNFYLIDKDGLVTTERTKLDPGAVLFAKNPAEIREGASIVEVVKKVRPHVLLGLSGVGGIFNEEVLKAMRESDSCKPAIFAMSNPTLNAECTAADAFKHAGGNIVFASGSPFENVELENGKVGHVNQANNMYLFPGIGLGTLLSGARIVTDGMLQAASECLASYMTDEEVQKGILYPSINNIRHITAEVGAAVLRAAVTDDIAEGHGDVGPKDLSHMSKEDTVNYITRNMWFPVYSPLVHEK
In the case of B1, in the data set “purified protein”, the Km amounted to 3.2 ± 0.4 mM and the kcat was 30.7 ± 2.0 s⁻¹.
